# Test results: US8716475B2, “2-aminopyrimidine modulators of the histamine H4 receptor” (Janssen Pharmaceutica NV, priority 2007, dated 2014)
# Target: T1, human H4 receptor (Homo sapiens, UniProt Q9H3N8)
# T1 construct: expressed in transfected cells
# Experiment: Binding Assay on Recombinant Human Histamine H4 Receptor
# Settings: Table 2, data marked with an asterisk (*): obtained by the cell harvester method; [3H] histamine competition binding, SK-N-MC membranes
# In short: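 Radioligand binding used membranes from SK-N-MC cells stably or transiently expressing human H4, prepared in 50 mM Tris/5 mM EDTA. Nonspecific binding was defined with 100 μM histamine. Bound radioactivity was counted after filtration on PEI-treated GF/C filters, and ">" values are the highest concentration tested.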
# T1 sequence (Q9H3N8 whole entry): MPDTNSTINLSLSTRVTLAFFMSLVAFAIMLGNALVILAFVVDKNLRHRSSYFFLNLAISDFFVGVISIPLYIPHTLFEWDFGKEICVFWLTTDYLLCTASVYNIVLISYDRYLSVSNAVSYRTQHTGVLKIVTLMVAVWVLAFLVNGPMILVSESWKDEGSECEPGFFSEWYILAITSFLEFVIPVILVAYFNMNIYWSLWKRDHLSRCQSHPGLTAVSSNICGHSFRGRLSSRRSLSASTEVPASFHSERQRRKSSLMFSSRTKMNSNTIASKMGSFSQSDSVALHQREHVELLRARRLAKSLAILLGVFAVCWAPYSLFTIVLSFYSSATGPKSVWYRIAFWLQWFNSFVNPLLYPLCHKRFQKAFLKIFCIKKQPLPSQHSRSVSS
row,Structure (SMILES),Ki [nM]
1,"CN(CCN)c1cc(Cc2ccccc2)nc(N)n1 [Example 250, N^4-(2-Amino-ethyl)-6-benzyl-N^4-methyl-pyrimidine-2,4-diamine]",564
2,"Nc1nc(C2Cc3ccccc3C2)cc(N2CC3CCCNC3C2)n1 (centres unmarked) [Example 251, 4-Indan-2-yl-6-(octahydro-pyrrolo[3,4-b]pyridin-6-yl)-pyrimidin-2-ylamine]",20

# Same assay, conditions: Table 2; [3H] histamine competition binding, membranes of SK-N-MC cells transfected with human H4 receptor; average of results
row,Structure (SMILES),Ki [nM]
1,"Nc1nc(Cc2cccs2)cc(N2CCNCC2)n1 [Example 215, 4-piperazin-1-yl-6-thiophen-2-ylmethyl-pyrimidin-2-ylamine]",6
2,"Nc1nc(Cc2cccs2)cc(N2CC[C@@H](N)C2)n1 [Example 216, (R)-4-(3-Amino-pyrrolidin-1-yl)-6-thiophen-2-ylmethyl-pyrimidin-2-ylamine]",32
3,"Nc1nc(Cc2cccs2)cc(N2CC3CCCNC3C2)n1 (stereo not drawn) [Example 217, 4-(cis-Octahydro-pyrrolo[3,4-b]pyridin-6-yl)-6-thiophen-2-ylmethyl-pyrimidin-2-ylamine]",9
4,"NCCNc1cc(Cc2cccs2)nc(N)n1 [Example 218, N^4-(2-Amino-ethyl)-6-thiophen-2-ylmethyl-pyrimidine-2,4-diamine]",20
5,"COCc1cc(NCCN)nc(N)n1 [Example 219, N^4-(2-Amino-ethyl)-6-methoxymethyl-pyrimidine-2,4-diamine]",890
6,"CN[C@@H]1CCN(c2cc(COC)nc(N)n2)C1 [Example 221, (R)-4-Methoxymethyl-6-(3-methylamino-pyrrolidin-1-yl)-pyrimidin-2-ylamine]",43
7,"COCc1cc(N2CC[C@@H](N)C2)nc(N)n1 [Example 222, (R)-4-(3-Amino-pyrrolidin-1-yl)-6-methoxymethyl-pyrimidin-2-ylamine]",23
8,"COCc1cc(N2CCN(C)CC2)nc(N)n1 [Example 223, 4-Methoxymethyl-6-(4-methyl-piperazin-1-yl)-pyrimidin-2-ylamine]",15
9,"COCc1cc(N2CCNCC2)nc(N)n1 [Example 224, 4-Methoxymethyl-6-piperazin-1-yl-pyrimidin-2-ylamine]",26
10,"COCc1cc(N2C[C@H]3CCCN[C@H]3C2)nc(N)n1 [Example 226, (R,R)-4-Methoxymethyl-6-(octahydro-pyrrolo[3,4-b]pyridin-6-yl)-pyrimidin-2-ylamine]",14
11,"CN1CCN(c2cc(CC3CCCO3)nc(N)n2)CC1 (centres unmarked) [Example 227, 4-(4-Methyl-piperazin-1-yl)-6-(tetrahydro-furan-2-ylmethyl)-pyrimidin-2-ylamine]",17
12,"CN[C@@H]1CCN(c2cc(CC3CCCO3)nc(N)n2)C1 (stereo partly drawn) [Example 228, (R)-4-(3-Methylamino-pyrrolidin-1-yl)-6-(tetrahydro-furan-2-ylmethyl)-pyrimidin-2-ylamine]",91
13,"CN1C[C@@H]2CN(c3cc(CC4CCCO4)nc(N)n3)C[C@@H]2C1 (stereo partly drawn) [Example 229, 4-(cis-5-Methyl-hexahydro-pyrrolo[3,4-c]pyrrol-2-yl)-6-(tetrahydro-furan-2-ylmethyl)-pyrimidin-2-ylamine]",360
14,"Nc1nc(CC2CCCO2)cc(N2CCNCC2)n1 (centres unmarked) [Example 230, 4-piperazin-1-yl-6-(tetrahydro-furan-2-ylmethyl)-pyrimidin-2-ylamine]",25
15,"Nc1nc(CC2CCCO2)cc(N2CC3CCCNC3C2)n1 (stereo not drawn) [Example 231, 4-(cis-Octahydro-pyrrolo[3,4-b]pyridin-6-yl)-6-(tetrahydro-furan-2-ylmethyl)-pyrimidin-2-ylamine]",59
16,"CN1CCN(c2cc(Cc3ccc(Cl)cc3)nc(N)n2)CC1 [Example 232, 4-(4-Chloro-benzyl)-6-(4-methyl-piperazin-1-yl)-pyrimidin-2-ylamine]",8
17,"Nc1nc(Cc2ccc(Cl)cc2)cc(N2CCNCC2)n1 [Example 233, 4-(4-Chloro-benzyl)-6-piperazin-1-yl-pyrimidin-2-ylamine]",12

row,Structure (SMILES),Ki [nM]
1,"CN[C@@H]1CCN(c2cc(Cc3ccc(Cl)cc3)nc(N)n2)C1 [Example 234, (R)-4-(4-Chloro-benzyl)-6-(3-methylamino-pyrrolidin-1-yl)-pyrimidin-2-ylamine]",18
2,"Nc1nc(Cc2ccc(Cl)cc2)cc(N2CC[C@@H](N)C2)n1 [Example 235, (R)-4-(3-Amino-pyrrolidin-1-yl)-6-(4-chloro-benzyl)-pyrimidin-2-ylamine]",140
3,"CN1C[C@@H]2CN(c3cc(Cc4ccc(Cl)cc4)nc(N)n3)C[C@@H]2C1 [Example 236, 4-(4-Chloro-benzyl)-6-(cis-5-methyl-hexahydro-pyrrolo[3,4-c]pyrrol-2-yl)-pyrimidin-2-ylamine]",249
4,"Nc1nc(Cc2ccc(Cl)cc2)cc(N2C[C@H]3CNC[C@H]3C2)n1 [Example 237, 4-(4-Chloro-benzyl)-6-(cis-hexahydro-pyrrolo[3,4-c]pyrrol-2-yl)-pyrimidin-2-ylamine]",257
5,"CN(CCN)c1cc(Cc2ccc(Cl)cc2)nc(N)n1 [Example 238, N^4-(2-Amino-ethyl)-6-(4-chloro-benzyl)-N^4-methyl-pyrimidine-2,4-diamine]",1770
6,"CCOCc1cc(N2CCN(C)CC2)nc(N)n1 [Example 239, 4-Ethyoxymethyl-6-(4-methyl-piperazin-1-yl)-pyrimidin-2-ylamine]",29
7,"CCOCc1cc(N2CCNCC2)nc(N)n1 [Example 240, 4-Ethoxymethyl-6-piperazin-1-yl-pyrimidin-2-ylamine]",25
8,"CCOCc1cc(N2CC[C@@H](NC)C2)nc(N)n1 [Example 241, (R)-Ethoxymethyl-6-(3-methylamino-pyrrolidin-1-yl)-pyrimidin-2-ylamine]",31
9,"CCOCc1cc(N2CC[C@@H](N)C2)nc(N)n1 [Example 242, (R)-Ethoxymethyl-6-(3-amino-pyrrolidin-1-yl)-pyrimidin-2-ylamine]",22
10,"CC(C)OCc1cc(N2CCN(C)CC2)nc(N)n1 [Example 246, 4-Isopropoxymethyl-6-(4-methyl-piperazin-1-yl)-pyrimidin-2-ylamine]",32
11,"Nc1nc(CCc2ccccc2)cc(N2CCNCC2)n1 [Example 247, 4-Phenethyl-6-piperazin-1-yl-pyrimidin-2-ylamine]",3
12,"Nc1nc(CCc2ccccc2)cc(N2CC(N)C2)n1 [Example 248, 4-(3-Amino-azetidin-1-yl)-6-phenethyl-pyrimidin-2-ylamine]",9
13,"Nc1nc(C2CCOCC2)cc(N2CC[C@@H](N)C2)n1 [Example 249, (R)-4-(3-Amino-pyrrolidin-1-yl)-6-(tetrahydro-pyran-4-yl)-pyrimidin-2-ylamine]",87
14,"Nc1nc2c(c(N3CC(N)C3)n1)COCC2 [Example 252, 4-(3-Amino-azetidin-1-yl)-7,8-dihydro-5H-pyrano[4,3-d]pyrimidin-2-ylamine]",> 10000
15,"Nc1nc2c(c(N3CC(N)C3)n1)CCCC2 [Example 253, 4-(3-Amino-azetidin-1-yl)-5,6,7,8-tetrahydro-quinazolin-2-ylamine]",> 10000
16,"CN1C[C@@H]2CN(c3nc(N)nc4c3COCC4)C[C@@H]2C1 [Example 254, 4-(cis-5-Methyl-hexahydro-pyrrolo[3,4-c]pyrrol-2-yl)-7,8-dihydro-5H-pyranol-[4,3-d]pyrimidin-2-ylamine]",> 10000
